Laboratory results published in patent US10093683B2, “Factor XIa inhibitors” (Merck Sharp & Dohme Corp., priority 2014, dated 2018).

Experiments:
human Factor XIa = human Factor XIa (Homo sapiens (Human), UniProt P03951); experiment: Factor XIa Assay; type: biochemical; conditions: purified human Factor XIa 40 pM, Z-Gly-Pro-Arg-AFC 100 μM, pH 7.4; read-out: FXIa Ki
Method in brief: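 Purified human FXIa (40 pM final) hydrolysing fluorogenic Z-Gly-Pro-Arg-AFC (100 μM) in 50 mM HEPES pH 7.4, 150 mM NaCl, 5 mM CaCl2, 0.1% PEG 8000, at room temperature or 37° C. Initial velocities measured after enzyme–inhibitor equilibration; Ki from Vo/Vi versus [I], assuming competitive inhibition.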

Human plasma kallikrein = Human plasma kallikrein (Homo sapiens (Human), UniProt P03952); experiment: Kallikrein Assay; type: biochemical; conditions: purified Human plasma kallikrein 0.5 nM, Acetyl-K-P-R-AFC, pH 7.4; Ki from IC50 by Cheng Prusoff
Sequence of Human plasma kallikrein (P03952 391-638): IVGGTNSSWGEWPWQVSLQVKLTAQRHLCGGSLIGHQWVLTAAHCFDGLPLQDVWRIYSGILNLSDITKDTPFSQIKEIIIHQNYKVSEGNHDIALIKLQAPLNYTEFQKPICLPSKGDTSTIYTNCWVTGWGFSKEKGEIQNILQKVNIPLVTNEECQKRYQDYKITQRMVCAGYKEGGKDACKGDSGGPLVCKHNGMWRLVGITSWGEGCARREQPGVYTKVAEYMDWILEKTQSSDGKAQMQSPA
Sequence of Human plasma kallikrein (P03952 20-390 partner): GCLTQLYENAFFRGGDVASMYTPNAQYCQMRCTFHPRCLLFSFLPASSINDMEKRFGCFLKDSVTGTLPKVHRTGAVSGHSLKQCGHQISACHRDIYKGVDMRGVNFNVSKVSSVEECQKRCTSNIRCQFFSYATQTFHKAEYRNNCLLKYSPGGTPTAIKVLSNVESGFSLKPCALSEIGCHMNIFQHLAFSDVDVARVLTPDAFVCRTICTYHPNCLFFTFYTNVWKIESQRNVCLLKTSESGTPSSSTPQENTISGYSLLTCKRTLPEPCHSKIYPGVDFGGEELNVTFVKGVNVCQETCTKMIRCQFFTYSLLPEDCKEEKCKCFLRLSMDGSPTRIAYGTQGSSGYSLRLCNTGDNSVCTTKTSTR
Method: The effectiveness of a compound of the present invention as an inhibitor of Kallikrein can be determined using a relevant purified serine protease, and an appropriate synthetic substrate. The rate of hydrolysis of the chromogenic or fluorogenic substrate by the relevant serine protease was measured both in the absence and presence of compounds of the present invention. Assays were conducted at room temperature or at 37° C. […] A decrease in the rate of fluorescence change in the presence of inhibitor is indicative of enzyme inhibition. Such methods are known to one skilled in the art. The results of this assay are expressed as the inhibitory constant, Ki.
Kallikrein determinations were made in 50 mM HEPES buffer at pH 7.4 containing 150 mM NaCl, 5 mM CaCl2, and 0.1% PEG 8000 (polyethylene glycol; Fisher Scientific). Determinations were made using purified Human plasma kallikrein at a final concentration of 0.5 nM (Enzyme Research Laboratories) and the synthetic substrate, Acetyl-K-P-R-AFC (Sigma #C6608) at a concentration of […].
Times required to achieve equilibration between enzyme and inhibitor were determined in control experiments. The reactions were performed under linear progress curve conditions and fluorescence increase measured at 405 Ex/510 Em nm. […] IC50 was determined by inflection point from a four parameter logistic curve fit. Ki was calculated using the Cheng Prusoff equation, Ki=IC50/(1+([S]/Km)).

Sequence of human Factor XIa (P03951 388-625): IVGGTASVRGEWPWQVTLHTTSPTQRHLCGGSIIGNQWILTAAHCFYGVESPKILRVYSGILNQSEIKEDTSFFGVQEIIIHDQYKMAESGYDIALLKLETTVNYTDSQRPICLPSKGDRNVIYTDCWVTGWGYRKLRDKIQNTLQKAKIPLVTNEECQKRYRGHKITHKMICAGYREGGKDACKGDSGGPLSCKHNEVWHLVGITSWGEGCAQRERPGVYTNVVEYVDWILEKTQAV
Sequence of human Factor XIa (P03951 19-387 partner): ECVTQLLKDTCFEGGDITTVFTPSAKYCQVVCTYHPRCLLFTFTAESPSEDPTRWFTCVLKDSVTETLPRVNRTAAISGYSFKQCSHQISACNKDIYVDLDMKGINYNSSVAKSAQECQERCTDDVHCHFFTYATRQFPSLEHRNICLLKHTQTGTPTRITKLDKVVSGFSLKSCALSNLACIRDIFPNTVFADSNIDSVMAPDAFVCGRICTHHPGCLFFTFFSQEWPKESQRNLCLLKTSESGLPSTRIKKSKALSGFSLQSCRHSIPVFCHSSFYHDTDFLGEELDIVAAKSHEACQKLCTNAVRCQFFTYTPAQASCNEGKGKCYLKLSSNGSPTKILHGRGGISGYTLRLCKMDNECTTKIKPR

Ki (human Factor XIa) [nM] | Ki (Human plasma kallikrein) [nM] | Compound
11.6 | 2.9 | COC(=O)Nc1ccc(C(=O)N[C@@H](CC2CC2(F)F)C(=O)N2CCC[C@@]3(C2)OC(=O)Nc2ccc(Cl)c(F)c23)cc1 (single isomer, unassigned) [Example 67A]
7.88 | 1.8 | COC(=O)Nc1ccc(C(=O)N[C@@H](CC2CC2(F)F)C(=O)N2CCC[C@@]3(C2)OC(=O)Nc2ccc(Cl)c(F)c23)cc1 (single isomer, unassigned) [Example 67B]
7.51 | 4.78 | COC(=O)Nc1ccc(C(=O)NC(C[C@@H]2CCCO2)C(=O)N2CCC[C@@]3(C2)OC(=O)Nc2ccc(Cl)c(F)c23)cc1 (single isomer, unassigned) [Example 116A]
18.7 | 10.6 | COC(=O)Nc1ccc(C(=O)NC(C[C@H]2CCCO2)C(=O)N2CCC[C@@]3(C2)OC(=O)Nc2ccc(Cl)c(F)c23)cc1 (single isomer, unassigned) [Example 117A]
1.5 | 1.55 | COC(=O)Nc1ccc(C(=O)N[C@@H](Cc2ccccc2)C(=O)N2CCC[C@@]3(C2)OC(=O)Nc2ccc(Cl)cc23)cc1 [Example 3b, methyl (4-(((S)-1-((R)-6-chloro-2-oxo-1,2-dihydrospiro[benzo[d][1,3]oxazine-4,3′-piperidin]-1′-yl)-1-oxo-3-phenylpropan-2-yl)carbamoyl)phenyl)carbamate]
4.7 | 4.02 | COC(=O)Nc1ccc(C(=O)N[C@@H](Cc2ccccc2)C(=O)N2CC[C@@]3(C2)OC(=O)Nc2ccc(Cl)cc23)cc1 [Example 6, methyl (4-(((S)-1-((R)-6-chloro-2-oxo-1,2-dihydrospiro[benzo[d][1,3]oxazine-4,3′-pyrrolidin]-1′-yl)-1-oxo-3-phenylpropan-2-yl)carbamoyl)phenyl)carbamate]
4.44 | 3.51 | COC(=O)Nc1ccc(C(=O)N[C@@H](Cc2ccccc2)C(=O)N2CC[C@@]3(C2)OC(=O)Nc2ccc(Cl)c(F)c23)cc1 [Example 7, methyl (4-(((S)-1-((R)-6-chloro-5-fluoro-2-oxo-1,2-dihydrospiro[benzo[d][1,3]oxazine-4,3′-pyrrolidin]-1′-yl)-1-oxo-3-phenylpropan-2-yl)carbamoyl)phenyl)carbamate]
 | 0.6 | COC(=O)Nc1ccc(C(=O)N[C@@H](CC2(OC)CC2)C(=O)N2CCC[C@@]3(C2)OC(=O)Nc2ccc(Cl)c(F)c23)cc1 [Example 115, methyl (4-(((S)-1-((R)-6-chloro-5-fluoro-2-oxo-1,2-dihydrospiro[benzo[d][1,3]oxazine-4,3′-piperidin]-1′-yl)-3-(1-methoxycyclopropyl)-1-oxopropan-2-yl)carbamoyl)phenyl)carbamate]
 | 1.79 | COC(=O)Nc1ccc(C(=O)N[C@@H](C[C@H](C)OC)C(=O)N2CCC[C@@]3(C2)OC(=O)Nc2ccc(Cl)c(F)c23)cc1 [Example 118A, methyl (4-(((2S,4S)-1-((R)-6-chloro-5-fluoro-2-oxo-1,2-dihydrospiro[benzo[d][1,3]oxazine-4,3′-piperidin]-1′-yl)-4-methoxy-1-oxopentan-2-yl)carbamoyl)phenyl)carbamate]
 | 1.06 | COC(=O)Nc1ccc(C(=O)N[C@@H](C[C@@H](C)OC)C(=O)N2CCC[C@@]3(C2)OC(=O)Nc2ccc(Cl)c(F)c23)cc1 [Example 118B, methyl (4-(((2S,4R)-1-((R)-6-chloro-5-fluoro-2-oxo-1,2-dihydrospiro[benzo[d][1,3]oxazine-4,3′-piperidin]-1′-yl)-4-methoxy-1-oxopentan-2-yl)carbamoyl)phenyl)carbamate]
 | 0.6 | O=C(Nc1ccc(C(=O)N[C@@H](Cc2cccc(F)c2)C(=O)N2CCC[C@@]3(C2)OC(=O)Nc2ccc(Cl)c(F)c23)cc1)OCCP(=O)(O)O [Example 271, (2-(((4-(((S)-1-((R)-6-chloro-5-fluoro-2-oxo-1,2-dihydrospiro[benzo[d][1,3]oxazine-4,3′-piperidin]-1′-yl)-3-(3-fluorophenyl)-1-oxopropan-2-yl)carbamoyl)phenyl)carbamoyl)oxy)ethyl)phosphonic acid]
≥ 5000 |  | CC(=O)Nc1ccc(S(=O)(=O)N[C@@H](Cc2ccccc2)C(=O)N2CCC3(C2)OC(=O)Nc2ccc(Cl)cc23)cc1 (stereo partly drawn) [Example 284, N-(4-(N-((2S)-1-(6-chloro-2-oxo-1,2-dihydrospiro[benzo[d][1,3]oxazine-4,3′-pyrrolidin]-1′-yl)-1-oxo-3-phenylpropan-2-yl)sulfamoyl)phenyl)acetamide]
≥ 5000 |  | O=C1Nc2ccc(Cl)cc2C2(CCN(C(=O)[C@H](Cc3ccccc3)NS(=O)(=O)c3ccc4oc(O)nc4c3)C2)O1 (stereo partly drawn) [Example 285, N-((2S)-1-(6-chloro-2-oxo-1,2-dihydrospiro[benzo[d][1,3]oxazine-4,3′-pyrrolidin]-1′-yl)-1-oxo-3-phenylpropan-2-yl)-2-hydroxybenzo[d]oxazole-5-sulfonamide]
2400 |  | CO[C@@H]1C[C@@H](C(=O)N2CC[C@@]3(C2)OC(=O)Nc2ccc(Cl)cc23)N(C(=O)c2ccc3nc(N)sc3c2)C1 [Example 290, (R)-1′-((2S,4R)-1-(2-aminobenzo[d]thiazole-6-carbonyl)-4-methoxypyrrolidine-2-carbonyl)-6-chlorospiro[benzo[d][1,3]oxazine-4,3′-pyrrolidin]-2(1H)-one]
4620 |  | Nc1nc2ccc(C(=O)N3C[C@H](F)C[C@H]3C(=O)N3CC[C@@]4(C3)OC(=O)Nc3ccc(Cl)cc34)cc2s1 [Example 291, (R)-1′-((2S,4R)-1-(2-aminobenzo[d]thiazole-6-carbonyl)-4-fluoropyrrolidine-2-carbonyl)-6-chlorospiro[benzo[d][1,3]oxazine-4,3′-pyrrolidin]-2(1H)-one]
1870 |  | Nc1nc2ccc(C(=O)N3C[C@H](Cc4ccccc4)C[C@H]3C(=O)N3CC[C@@]4(C3)OC(=O)Nc3ccc(Cl)cc34)cc2s1 [Example 292, (R)-1′-((2S,4R)-1-(2-aminobenzo[d]thiazole-6-carbonyl)-4-benzylpyrrolidine-2-carbonyl)-6-chlorospiro[benzo[d][1,3]oxazine-4,3′-pyrrolidin]-2(1H)-one]
10000 |  | O=C1Nc2ccc(Cl)cc2[C@@]2(CCN(C(=O)[C@H](Cc3ccccc3)Nc3ncc(C(=O)O)cc3F)C2)O1 [Example 294, 6-(((S)-1-((R)-6-chloro-2-oxo-1,2-dihydrospiro[benzo[d][1,3]oxazine-4,3′-pyrrolidin]-1′-yl)-1-oxo-3-phenylpropan-2-yl)amino)-5-fluoronicotinic acid]
10000 |  | O=C1Nc2ccc(Cl)cc2[C@@]2(CCCN(C(=O)[C@H](Cc3ccccc3)Nc3ccc(-c4ccc(O)nc4)cn3)C2)O1 [Example 295, (R)-6-chloro-1′-((6′-hydroxy-[3,3′-bipyridin]-6-yl)-L-phenylalanyl)spiro[benzo[d][1,3]oxazine-4,3′-piperidin]-2(1H)-one]
10000 |  | O=C1Nc2ccc(Cl)cc2[C@@]2(CCCN(C(=O)[C@H](Cc3ccccc3)Nc3ccc(-c4cc[nH]n4)cn3)C2)O1 [Example 296, (R)-1′-((5-(1H-pyrazol-3-yl)pyridin-2-yl)-L-phenylalanyl)-6-chlorospiro[benzo[d][1,3]oxazine-4,3′-piperidin]-2(1H)-one]
10000 |  | O=C1Nc2ccc(Cl)cc2[C@@]2(CCCN(C(=O)[C@H](Cc3ccccc3)Nc3ccc(-c4cccc(C(=O)O)c4)cn3)C2)O1 [Example 297, 3-(6-(((S)-1-((R)-6-chloro-2-oxo-1,2-dihydrospiro[benzo[d][1,3]oxazine-4,3′-piperidin]-1′-yl)-1-oxo-3-phenylpropan-2-yl)amino)pyridin-3-yl)benzoic acid]
